Measured values taken from patent publication US20250213478A1, “CATIONIC LIPID HAVING DISULFIDE BOND, LIPID MEMBRANE STRUCTURE INCLUDING SAME, NUCLEIC ACID INTRODUCTION AGENT AND PHARMACEUTICAL COMPOSITION CONTAINING ANY ONE OF SAME, METHOD FOR INTRODUCING NUCLEIC ACID INTO CELL OR TARGET CELL, AND METHOD FOR PRODUCING CELLULAR PHARMACEUTICAL” (NOF Corporation, priority 2022, published 2025).

Columns and labels:
[1] = Particle size, PdI and zeta potential of mRNA-encapsulating LNPs (dynamic light scattering); format: physicochemical; details: mRNA-encapsulating LNP, cationic lipid:DOPC:Chol=55:5:40 + about 1 mol DMG-PEG2k; for PdI / particle size: dynamic light scattering; for zeta potential: physiological pH
Method: (§1) A 10 mM ethanol solution of cationic lipid, a 5 mM ethanol solution of DOPC, and a 10 mM ethanol solution of Chol were mixed at desired ratio (cationic lipid:DOPC:Chol=55:5:40 (molar ratio)) in an Eppendorf tube to achieve the total lipid amount of 720 nmol. To the obtained mixture was further added DMG-PEG2k (2 mM ethanol solution) in an amount of about 1 mol with respect to the total amount 100 mol of cationic lipid, DOPC, and Chol, and then ethanol was added to prepare an ethanol solution of the lipid (total amount: 360 μL).
An acidic buffer solution (total amount: 1080 μL) of nucleic acid was prepared by weighing 7.2 μg of mRNA solution (0.6 mg/mL) in a 5 mL tube and adding acidic malate buffer (20 mM, pH 3.0) containing NaCl at a final concentration of 30 mM.
An acidic buffer solution of nucleic acid and an ethanol solution of lipid were each weighed in a syringe. Using an ultra high-speed nanomedicament producing apparatus NanoAssmblr (manufactured by Precision NanoSystems), LNP was prepared under the conditions of addition rate of acidic buffer solution of nucleic acid: 3 mL/min, addition rate of ethanol solution of lipid: 1 mL/min, and syringe holder temperature: 25° C., and collected in a 15 mL tube. MES buffer (pH 6.5) (3000 μL) was added to the 15 mL tube, the obtained mixture was transferred to Amicon Ultra 4, and ultrafiltration was performed under centrifugation conditions (25° C., 1000 g, 6 min) to concentrate the mixture to about 100 μL. The obtained concentrate was diluted with PBS to 4 mL, and the mixture was concentrated again under centrifugation conditions (25° C., 1000 g, 6 min), and this operation was performed twice. The obtained concentrate was diluted with PBS to a lipid concentration of 2 mM to give a dispersion containing LNP.
The particle size, PdI (Polydispersity Index), and zeta potential of the mRNA-encapsulating LNP prepared by the method of the above-mentioned 1 were measured by a dynamic light scattering method. In Comparative Example, the cationic lipid described in the aforementioned Table 3 were used.

[2] = tested on: BALB/c mouse; experiment: Evaluation of in vivo gene expression (luciferase mRNA-encapsulating LNP, IVIS of isolated organs); details: for relative value based on Comparative Example (amount of luminescence in spleen): relative to O-Ph-P4C2 LNP = 1.00; for amount of luminescence in each organ: heart / amount of luminescence in each organ: kidney / amount of luminescence in each organ: liver / amount of luminescence in each organ: lung / amount of luminescence in each organ: spleen: tail vein, mRNA 0.05 mg/kg, 4.5 hr + 15 min after administration; for amount of luminescence in each organ: spleen: spleen (Table 7)
Method: (§2) LNP encapsulating mRNA that expresses luciferase (cationic lipid:DOPC:Chol:DMG-PEG2k=55:5:40:1 (molar ratio)) was prepared by the method described in [Experimental Example 2], 1.
The prepared each mRNA-encapsulating LNP dispersion was administered from the tail vein of BALB/c mouse (male, 5-week-old). The dose of mRNA was set to 0.05 mg per 1 kg body weight of the mouse, and the dose of the mRNA-encapsulating LNP dispersion was set to 10 μL per 1 g body weight of the mouse. After 4.5 hr from the administration of the mRNA-encapsulating LNP dispersion, a PBS solution of D-luciferin potassium was administered into the abdominal cavity of the mouse. The dose of D-luciferin potassium was set to 3 mg per mouse, and the dose of the PBS solution of D-luciferin potassium was set to 200 μL per mouse. After 15 min from the administration of the PBS solution of D-luciferin potassium, the mouse was euthanized, and the liver, spleen, kidney, heart, and lung were isolated. The luminescence in each organ was quantified using an in vivo imaging system (IVIS) with an exposure of 10 sec. The amount of luminescence in each organ was quantified by image analysis using Live Imaging software attached to IVIS. The amount of luminescence (photons/sec) was calculated from the acquired image and used as an index of gene expression activity. “E+0a” (a: integer) indicated in Table 7 and Table 8 means “10^a”. For example, “1.0E+02” means “1.0×10^2”. In Comparative Example, the cationic lipid described in the aforementioned Table 3 were used.

[3] = Measurement of Liposomal pKa of LNP (TNS fluorescence); format: physicochemical; details: LNP without nucleic acid, cationic lipid:DOPC:Chol=52.5:7.5:40 + about 1.5 mol DMG-PEG2k; pH at which relative TNS fluorescence intensity was 50%
Method: Lipid nanoparticles (LNP) without containing nucleic acid were used for the evaluation of Liposomal pKa.
as §1, with “(cationic lipid:DOPC:Chol=52.5:7.5:40” for “(cationic lipid:DOPC:Chol=55:5:40”, “about 1.5” for “about 1”
An acidic malic acid buffer (20 mM, pH 3.0) (1080 μL) containing NaCl at a final concentration of 30 mM and an ethanol solution (360 μL) of lipid were each weighed in a syringe. Using an ultra high-speed nanomedicament producing apparatus NanoAssmblr (manufactured by Precision NanoSystems), LNP was prepared under the conditions of addition rate of acidic buffer solution: 3 mL/min, addition rate of ethanol solution of lipid: 1 mL/min, and syringe holder temperature: 25° C., and collected in a 15 mL tube. MES buffer (pH 6.5) (3000 μL) was added to the 15 mL tube, the obtained mixture was transferred to Amicon Ultra 4, and ultrafiltration was performed under centrifugation conditions (25° C., 1000 g, 6 min) to concentrate the mixture to about 100 μL. The obtained concentrate was diluted with PBS to 4 mL, and the mixture was concentrated again under centrifugation conditions (25° C., 1000 g, 6 min), and this operation was performed twice. The obtained concentrate was diluted with PBS to a lipid concentration of 0.5 mM to give a dispersion containing LNP.
20 mM Citrate buffer, sodium phosphate buffer, and tris HCl buffer, each containing NaCl at a final concentration of 150 mM and adjusted to various pHs within the range of pH 3.0 to 10.0, were prepared. TNS (manufactured by Sigma) was diluted with ultrapure water to 0.6 mM. TNS solution (2 μL), dispersions (12 μL) containing LNP prepared in [Experimental Example 1], 1., and buffers adjusted to various pHs (186 μL) were added to a black 96 well plate. The plate was protected from light and shaken at 400 rpm for 10 min. The fluorescence intensity (excitation: 321 nm/emission: 447 nm) was measured using a plate reader (manufactured by TECAN). The relative fluorescence intensity was calculated as a percentage, with the maximum value of the fluorescence intensity in each LNP being 100% and the minimum value being 0%. Furthermore, the pH at which the relative fluorescence intensity was 50% was taken as Liposomal pKa. In Comparative Example, the cationic lipid described in the aforementioned Table 3 were used.

[4] = tested on: HeLa cells; experiment: Evaluation of in vitro gene expression in HeLa cell (luciferase mRNA-encapsulating LNP); format: cell-based, human; details: for cumulative luciferase luminescence intensity over 24 hr: luciferase mRNA 0.4 μg per dish, LNP cationic lipid:DOPC:Chol:DMG-PEG2k=55:5:40:1; for gene expression activity compared to Comparative Example: result in words
Method: as §2
HeLa cells, which are human cervical cancer cells, were seeded in a 3.5 cm dish at 5.0×10^4 cells/2 mL/Dish 24 hours before transfection. After 24 hours, the medium was exchanged with a culture medium (D-MEM) containing 0.1 mM D-luciferin. Prepared mRNA-encapsulating LNP was diluted with PBS such that the concentration of mRNA was about 8 μg/mL. The diluted mRNA-encapsulating LNP solution (about 50 μL, mRNA: 0.4 μg) was added to the 3.5 cm dish and set in an incubator luminometer KronosDio. The luminescence intensity of luciferase was measured for 2 min every one hour. The cumulative luciferase luminescence intensity for 24 hr was calculated from the obtained time change of expression. For example, “1.0E+06” means “1.0×10^6”. In Comparative Example, the cationic lipid described in the aforementioned Table 3 were used.

Row | Compound | PdI [1] | particle size [1] | zeta potential [1] | pKa [3] | relative value based on Comparative Example (amount of luminescence in spleen) ([2]; spleen) | amount of luminescence in each organ: heart [2] | amount of luminescence in each organ: kidney [2] | amount of luminescence in each organ: liver [2] | amount of luminescence in each organ: lung [2] | amount of luminescence in each organ: spleen [2] | cumulative luciferase luminescence intensity over 24 hr [4] | gene expression activity compared to Comparative Example [4] | gene expression activity in the spleen compared to Comparative Example ([2]; spleen, result in words)
1 | CCCCCCCCCCCCCCCCC(CCCCCCCCCCCCCCCC)C(=O)Oc1ccc(CC(=O)OCCSSCCOC(=O)OCCN(C)C)cc1 [Example 30] | 0.080 | 59 nm | 2.3 mV | 6.4 | 0.12 | 6.17E+05 photons/sec | 3.80E+05 photons/sec | 1.98E+07 photons/sec | 5.26E+05 photons/sec | 1.24E+06 photons/sec | 1.35E+07 RLU | superior gene expression activity | 
2 | CCCCCCCCCCCCCCCCC(CCCCCCCCCCCCCCCC)C(=O)Oc1ccc(CC(=O)OCCSSCCOC(=O)N(C)CCN(CC)CC)cc1 [Example 29] | 0.080 | 59 nm | 1.2 mV | 6.7 | 0.29 | 7.27E+05 photons/sec | 6.29E+05 photons/sec | 8.05E+07 photons/sec | 7.49E+05 photons/sec | 3.16E+06 photons/sec | 1.75E+07 RLU | superior gene expression activity | 
3 | CCCCCCCCCCCCCCCCC(CCCCCCCCCCCCCCCC)C(=O)Oc1ccc(CC(=O)OCCSSCCOC(=O)NCCCCN(C)C)cc1 [Example 25] | 0.126 | 78 nm | 14.7 mV | 8.6 | 0.03 | 4.74E+05 photons/sec | 3.63E+05 photons/sec | 1.67E+05 photons/sec | 2.74E+05 photons/sec | 3.07E+05 photons/sec | 1.25E+07 RLU | superior gene expression activity | 

Continued, in another order:

Row | PdI [1] | particle size [1] | zeta potential [1] | pKa [3] | Compound | relative value based on Comparative Example (amount of luminescence in spleen) ([2]; spleen) | amount of luminescence in each organ: heart [2] | amount of luminescence in each organ: kidney [2] | amount of luminescence in each organ: liver [2] | amount of luminescence in each organ: lung [2] | amount of luminescence in each organ: spleen [2] | cumulative luciferase luminescence intensity over 24 hr [4] | gene expression activity compared to Comparative Example [4] | gene expression activity in the spleen compared to Comparative Example ([2]; spleen, result in words)
4 | 0.068 | 70 nm | −4.0 mV | 6.8 | CCCCC/C=C\C/C=C\CCCCCCCC(=O)OCC(C)(COC(=O)CCCCCCC/C=C\C/C=C\CCCCC)C(=O)Oc1ccc(CC(=O)OCCSSCCOC(=O)NCCN(CC)CC)cc1 [Example 35] | 0.37 | 6.31E+05 photons/sec | 3.94E+05 photons/sec | 1.35E+07 photons/sec | 4.65E+05 photons/sec | 4.03E+06 photons/sec | 6.34E+07 RLU | superior gene expression activity | 
5 | 0.060 | 63 nm | 0.4 mV | 7.2 | CCCCCCCC/C=C\CCCCCCCC(=O)OCC(C)(COC(=O)CCCCCCC/C=C\CCCCCCCC)C(=O)Oc1ccc(CC(=O)OCCSSCCOC(=O)NCCN(CC)CC)cc1 [Example 34] | 1.27 | 6.83E+05 photons/sec | 5.04E+05 photons/sec | 2.52E+07 photons/sec | 6.02E+05 photons/sec | 1.37E+07 photons/sec | 1.08E+08 RLU | superior gene expression activity | superior gene expression activity
